This note sets out measurements from publication PMC5461506, “Strength of Neisseria meningitidis binding to endothelial cells requires highly-ordered CD147/β2-adrenoceptor clusters assembled by alpha-actinin-4” (Nature Communications, 2017).

The subject of one test is CD147–β2AR complex. The test is described as follows: BRET between CD147-Rluc and β2AR-YFP. It is filed as cell-based, human. Conditions: HEK293 cells. (In general: BRET reads energy transfer from a luciferase to a nearby fluorophore.)
In test [1] the target is juxta-membrane cytosolic portion of CD44. Put plainly: Surface plasmon resonance, immobilized CD44 juxta-membrane peptide. It is filed as binding. Conditions: SPR, non-reducing buffer, BIAcore T200, read-out: dissociation constant (Kd). As for the experimental part:
(§1) For SPR experiments, the fusion proteins GST-Actn4, GST alone or the GST-FERM domain of ezrin used as a control were diluted either in a non-reducing (PBS, 0.02% Tween-20) or a reducing (10 mM HEPES, 150 mM NaCl, 1 mM EDTA, 1 mM dithiothreitol, 0.005% Tween-20) running buffer. To control the impact of these buffers on the dimerization status of Actn4, Actn4-GST or GST alone as a control (final concentration 100 nM) were incubated for 30 min with 250 μM freshly prepared solution of bissulfosuccinimidyl suberate crosslinker, then separated on SDS–PAGE gels and transferred to nitrocellulose to analyse their electrophoretic migration by immunoblot. Interaction studies between α-Actn4 and CD147 were performed on a BIAcore T200 Instrument (BIAcore Life Sciences, GE Healthcare Europe). Streptavidin-coated sensor chips (Series S sensor chip SA; GE Healthcare) were used to capture a biotinylated peptide encoding the cytosolic sequence of CD147 (Biotin-[…]) or the juxta-membrane region of CD44 (Biotin-NSRRRCGQKKKLVINSG), purchased from Proteogenix, at a flow rate of 5 μl min^−1 in the non-reducing or the reducing running buffer. The density was controlled at an increased response level of 630 and 286 response units (RUs), for CD147 and CD44, respectively depending on molecular weight. […] Output sensorgrams were analysed using the BIAevaluation 4.1.1 Software.
(In SPR one partner is held on a chip, and binding of the other changes the refractive index at the surface.)

A further test relates to cytosolic tail of CD147. Put plainly: Surface plasmon resonance, immobilized CD147 cytosolic peptide. Type of test: binding. Conditions: SPR, non-reducing buffer. On the procedure: as §1
The target of test [2] is T1, recombinant glutathione-S-transferase (GST)–Actn4 fusion protein (human, UniProt O43707 1-911).
T1 construct: also called Actn4-GST; source: recombinant, purified
T1 sequence (O43707 whole entry, the tested form may be a part): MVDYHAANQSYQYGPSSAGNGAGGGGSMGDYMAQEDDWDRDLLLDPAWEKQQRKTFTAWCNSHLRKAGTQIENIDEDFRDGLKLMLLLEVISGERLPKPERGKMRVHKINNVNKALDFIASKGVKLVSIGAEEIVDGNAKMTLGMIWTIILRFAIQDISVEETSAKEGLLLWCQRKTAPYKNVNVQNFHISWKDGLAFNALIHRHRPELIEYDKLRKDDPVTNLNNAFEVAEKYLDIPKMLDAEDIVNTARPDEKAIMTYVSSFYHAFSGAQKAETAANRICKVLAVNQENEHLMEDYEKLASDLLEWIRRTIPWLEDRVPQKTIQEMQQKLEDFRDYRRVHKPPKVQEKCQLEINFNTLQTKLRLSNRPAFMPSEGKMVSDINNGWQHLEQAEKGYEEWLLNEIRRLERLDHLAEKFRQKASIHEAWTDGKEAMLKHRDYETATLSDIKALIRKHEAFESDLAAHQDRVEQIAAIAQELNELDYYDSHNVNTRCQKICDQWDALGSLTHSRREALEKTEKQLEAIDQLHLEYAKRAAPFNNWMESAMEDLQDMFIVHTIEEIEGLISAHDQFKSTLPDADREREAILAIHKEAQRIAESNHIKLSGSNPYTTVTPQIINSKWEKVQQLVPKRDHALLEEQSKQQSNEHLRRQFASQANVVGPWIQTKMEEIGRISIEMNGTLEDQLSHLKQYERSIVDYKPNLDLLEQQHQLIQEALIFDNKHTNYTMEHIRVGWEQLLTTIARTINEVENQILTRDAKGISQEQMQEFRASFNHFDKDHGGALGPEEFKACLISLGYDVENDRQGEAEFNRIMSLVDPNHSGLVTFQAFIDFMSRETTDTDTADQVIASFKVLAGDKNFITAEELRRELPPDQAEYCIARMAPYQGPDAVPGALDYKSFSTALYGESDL
Put plainly: SPR; BIAcore T200, biotinylated peptides captured on streptavidin chip (630 RU CD147, 286 RU CD44), GST fusions as analytes, non-reducing buffer (PBS, 0.02% Tween-20), 25 μl/min, 60 s association, 60 s dissociation. The note with it: both partners purified.

Test [3] has as its target T2, GST-coupled four-point-one, ezrin, radixin, moesin (FERM) domain of ezrin (human, UniProt P15311 2-296).
T2 construct: also called GST-FERM domain of ezrin; ezrin FERM domain in fusion with GST
The description is as above. Conditions: both partners purified.

Test [4] concerns the target T1, recombinant glutathione-S-transferase …. The test is described as follows: SPR; BIAcore T200, biotinylated peptide captured on streptavidin chip, GST-Actn4 as analyte, reducing buffer (10 mM HEPES, 150 mM NaCl, 1 mM EDTA, 1 mM dithiothreitol, 0.005% Tween-20); apparent affinity. Conditions: both partners purified.

No end group written: not given here. *: point of attachment. Biotin = O=C1N[C@H]2[C@H](CS[C@H]2CCCCC(=O)*)N1

T2 sequence (P15311 2-296): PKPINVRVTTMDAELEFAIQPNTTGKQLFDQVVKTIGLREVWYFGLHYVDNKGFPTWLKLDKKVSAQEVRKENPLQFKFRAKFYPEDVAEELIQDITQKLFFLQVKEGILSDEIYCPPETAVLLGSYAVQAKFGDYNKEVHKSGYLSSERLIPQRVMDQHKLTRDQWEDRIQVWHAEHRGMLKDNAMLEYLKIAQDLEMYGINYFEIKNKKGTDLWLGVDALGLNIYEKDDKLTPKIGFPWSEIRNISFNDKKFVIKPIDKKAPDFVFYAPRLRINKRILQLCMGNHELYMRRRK
Method for CD147–β2AR complex: HEK293 cells (2 × 10^5 per well of a 6-well plates) were transfected with 2 ng plasmid DNA coding for the BRET donor (CD147-Luc, CD147ΔD2-Luc) and increasing amounts of BRET acceptor plasmids (β2-YFP, CCR5-YFP; 0–400 ng per well). Twenty-four hours after transfection, cells were resuspended in Hank's balanced salt solution and distributed in 96-well plates (Perkin-Elmer plates; 10^5 cells per well). After addition of the luciferase substrate, coelenterazine h (5 μM final concentration), luminescence at 485 nm and fluorescence at 530 nm were measured simultaneously in a Mithras LB940 Plate Reader. The BRET ratio was calculated as: ((emission at 530 nm/emission at 485 nm)−(background at 530 nm/background at 485 nm)), where background corresponds to signals in cells expressing the Rluc fusion protein alone under the same experimental conditions. For better readability, results were expressed in milli-BRET units (mBRET), 1 mBRET corresponding to the BRET ratio multiplied by 1000. BRET ratios were plotted as a function of ([YFP-YFP0])/(Rluc), where YFP is the fluorescence signal at 530 nm after excitation at 485 nm, and Rluc the signal at 485 nm after addition of coelenterazine h. YFP0 and Rluc0 correspond to the same values in cells expressing the Rluc fusion protein alone. […]

Regarding `CC(C)NCC(O)c1ccc(O)c(O)c1` (centres unmarked) [isoproterenol], the “BRET signal between CD147 and β2AR” value with CD147–β2AR complex (2 ng CD147-Rluc, 20 ng β2AR-YFP, isoproterenol 10 μM, read every 2 min for 20 min, mean±s.e.m., n=3, representative of four experiments) is on record as “reduced”.

On to `CC(C)NCC(O)COc1cccc2ccccc12` (centres unmarked) [propranolol], for which the “effect on isoproterenol-induced BRET reduction” value in the test with CD147–β2AR complex (10 μM isoproterenol in combination with 10 μM propranolol, 20 min) is “This effect was inhibited”.

For the molecule “GST-coupled four-point-one, ezrin, radixin, moesin (FERM) domain of ezrin: GST-FERM domain of ezrin used as a control”, the Kd in test [1] worked out at 4.3 ± 0.1 nM. The “interaction with immobilized CD147 peptide” value in the test on cytosolic tail of CD147 was “poorly interacted with the CD147 peptide”.

B1: biotinylated peptide of the juxta-membrane region of CD44 (peptide)
peptide: Biotin-NSRRRCGQKKKLVINSG
notes: also called cytosolic tail of CD44; juxta-membrane cytosolic portion of CD44; source: synthetic peptide, bought: ProteoGenix
In the case of B1, the Kd amounted to 159 ± 43 nM in test [2] and 4.3 ± 0.1 nM in test [3].

B2: biotinylated peptide encoding the cytosolic sequence of CD147 (peptide)
peptide: Biotin-AYDKRRKPEDVLDDDDAGSAPLKSSGQHQNDKGKNVRQRNSS
notes: also called CD147-CT; CD147 peptide; source: synthetic peptide, bought: ProteoGenix
As for B2, the values for the Kd in test [4] and in test [2] were 44600 ± 32500 nM and 4 ± 0.01 nM, respectively.
